Reference: PMC12586182 (Frontiers in Oncology, 2025)

Tests used:
Assay in all cases: Kinase panel profiling at 1 µmol/L (mobility shift assay, Carna)
Assay type in all cases: biochemical
Settings in all cases: 1 µmol/L of BTK inhibitor
[1] = molecular target: T1, PKCα (Homo sapiens, UniProt P17252)
T1 construct: purchased Carna Biosciences

[2] = molecular target: T2, MST3 (Homo sapiens, UniProt Q9Y6E0)
T2 construct: purchased Carna Biosciences

[3] = molecular target: T3, JAK1 (Homo sapiens, UniProt P23458)
T3 construct: purchased Carna Biosciences

[4] = molecular target: T4, HIPK1 (Homo sapiens, UniProt Q86Z02)
T4 construct: purchased Carna Biosciences

[5] = molecular target: T5, TYRO3 (Homo sapiens, UniProt Q06418)
T5 construct: purchased Carna Biosciences
T5 sequence (Q06418 41-890): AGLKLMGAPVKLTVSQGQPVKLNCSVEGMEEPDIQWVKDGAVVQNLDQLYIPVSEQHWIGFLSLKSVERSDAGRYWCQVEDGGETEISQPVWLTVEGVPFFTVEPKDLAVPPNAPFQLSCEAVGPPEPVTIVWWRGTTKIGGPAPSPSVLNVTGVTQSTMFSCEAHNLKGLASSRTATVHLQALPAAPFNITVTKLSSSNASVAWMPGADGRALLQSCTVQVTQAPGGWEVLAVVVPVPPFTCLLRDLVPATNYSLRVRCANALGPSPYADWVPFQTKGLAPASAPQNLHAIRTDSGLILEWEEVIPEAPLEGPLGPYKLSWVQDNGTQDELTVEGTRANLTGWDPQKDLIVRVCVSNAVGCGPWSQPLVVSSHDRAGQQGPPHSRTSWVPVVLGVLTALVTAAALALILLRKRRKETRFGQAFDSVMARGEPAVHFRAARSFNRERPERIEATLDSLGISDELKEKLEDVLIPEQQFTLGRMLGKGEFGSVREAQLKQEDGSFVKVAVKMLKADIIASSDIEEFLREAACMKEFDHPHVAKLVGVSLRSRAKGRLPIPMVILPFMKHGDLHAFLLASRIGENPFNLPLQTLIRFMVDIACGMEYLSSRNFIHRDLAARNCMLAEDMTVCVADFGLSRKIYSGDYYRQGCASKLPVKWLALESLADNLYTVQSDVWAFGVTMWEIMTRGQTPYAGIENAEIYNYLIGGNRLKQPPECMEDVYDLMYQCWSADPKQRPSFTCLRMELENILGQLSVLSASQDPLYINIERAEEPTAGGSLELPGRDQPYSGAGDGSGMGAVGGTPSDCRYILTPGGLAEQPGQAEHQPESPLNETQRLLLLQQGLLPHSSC

[6] = molecular target: T6, CLK1 (Homo sapiens, UniProt P49759)
T6 construct: purchased Carna Biosciences

[7] = molecular target: T7, MST1 (Homo sapiens, UniProt Q13043)
T7 construct: purchased Carna Biosciences
T7 sequence (Q13043 1-487): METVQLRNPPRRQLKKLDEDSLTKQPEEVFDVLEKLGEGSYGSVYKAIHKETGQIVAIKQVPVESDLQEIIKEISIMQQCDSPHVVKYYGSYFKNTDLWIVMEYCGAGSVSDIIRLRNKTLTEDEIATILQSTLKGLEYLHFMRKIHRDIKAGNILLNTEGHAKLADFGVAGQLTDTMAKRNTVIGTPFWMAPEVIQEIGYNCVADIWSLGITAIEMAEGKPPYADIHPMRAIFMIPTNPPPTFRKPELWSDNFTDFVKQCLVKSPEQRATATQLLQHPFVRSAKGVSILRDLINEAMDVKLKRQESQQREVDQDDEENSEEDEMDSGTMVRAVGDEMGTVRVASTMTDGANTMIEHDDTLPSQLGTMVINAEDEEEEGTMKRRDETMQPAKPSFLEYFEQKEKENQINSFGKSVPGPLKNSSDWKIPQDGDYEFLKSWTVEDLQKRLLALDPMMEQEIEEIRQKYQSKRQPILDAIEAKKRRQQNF

[8] = molecular target: T8, WNK3 (Homo sapiens, UniProt Q9BYP7)
T8 construct: purchased Carna Biosciences

[9] = molecular target: T9, SPHK2 (Homo sapiens, UniProt Q9NRA0)
T9 construct: purchased Carna Biosciences
T9 sequence (Q9NRA0 1-654): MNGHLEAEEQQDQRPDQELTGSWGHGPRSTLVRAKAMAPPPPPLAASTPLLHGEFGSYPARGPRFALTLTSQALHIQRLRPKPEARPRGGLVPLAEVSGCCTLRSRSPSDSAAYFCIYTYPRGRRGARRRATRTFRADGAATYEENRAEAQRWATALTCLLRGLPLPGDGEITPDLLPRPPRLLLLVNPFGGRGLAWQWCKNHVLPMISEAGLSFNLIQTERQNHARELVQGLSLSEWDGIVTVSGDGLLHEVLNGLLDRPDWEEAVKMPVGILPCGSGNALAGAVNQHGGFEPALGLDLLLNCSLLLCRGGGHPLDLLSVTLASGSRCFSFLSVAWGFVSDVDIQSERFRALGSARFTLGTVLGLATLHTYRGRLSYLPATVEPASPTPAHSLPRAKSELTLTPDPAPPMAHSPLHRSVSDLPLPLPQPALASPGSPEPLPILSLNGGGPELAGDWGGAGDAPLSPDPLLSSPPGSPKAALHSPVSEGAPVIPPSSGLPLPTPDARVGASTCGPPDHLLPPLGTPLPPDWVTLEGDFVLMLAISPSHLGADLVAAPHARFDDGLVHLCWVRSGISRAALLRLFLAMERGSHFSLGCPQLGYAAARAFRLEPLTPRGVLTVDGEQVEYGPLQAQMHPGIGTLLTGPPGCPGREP

[10] = molecular target: T10, PAK6 (Homo sapiens, UniProt Q9NQU5)
T10 construct: purchased Carna Biosciences

[11] = molecular target: T11, PLK1 (Homo sapiens, UniProt P53350)
T11 construct: purchased Carna Biosciences

T8 sequence (Q9BYP7 whole entry): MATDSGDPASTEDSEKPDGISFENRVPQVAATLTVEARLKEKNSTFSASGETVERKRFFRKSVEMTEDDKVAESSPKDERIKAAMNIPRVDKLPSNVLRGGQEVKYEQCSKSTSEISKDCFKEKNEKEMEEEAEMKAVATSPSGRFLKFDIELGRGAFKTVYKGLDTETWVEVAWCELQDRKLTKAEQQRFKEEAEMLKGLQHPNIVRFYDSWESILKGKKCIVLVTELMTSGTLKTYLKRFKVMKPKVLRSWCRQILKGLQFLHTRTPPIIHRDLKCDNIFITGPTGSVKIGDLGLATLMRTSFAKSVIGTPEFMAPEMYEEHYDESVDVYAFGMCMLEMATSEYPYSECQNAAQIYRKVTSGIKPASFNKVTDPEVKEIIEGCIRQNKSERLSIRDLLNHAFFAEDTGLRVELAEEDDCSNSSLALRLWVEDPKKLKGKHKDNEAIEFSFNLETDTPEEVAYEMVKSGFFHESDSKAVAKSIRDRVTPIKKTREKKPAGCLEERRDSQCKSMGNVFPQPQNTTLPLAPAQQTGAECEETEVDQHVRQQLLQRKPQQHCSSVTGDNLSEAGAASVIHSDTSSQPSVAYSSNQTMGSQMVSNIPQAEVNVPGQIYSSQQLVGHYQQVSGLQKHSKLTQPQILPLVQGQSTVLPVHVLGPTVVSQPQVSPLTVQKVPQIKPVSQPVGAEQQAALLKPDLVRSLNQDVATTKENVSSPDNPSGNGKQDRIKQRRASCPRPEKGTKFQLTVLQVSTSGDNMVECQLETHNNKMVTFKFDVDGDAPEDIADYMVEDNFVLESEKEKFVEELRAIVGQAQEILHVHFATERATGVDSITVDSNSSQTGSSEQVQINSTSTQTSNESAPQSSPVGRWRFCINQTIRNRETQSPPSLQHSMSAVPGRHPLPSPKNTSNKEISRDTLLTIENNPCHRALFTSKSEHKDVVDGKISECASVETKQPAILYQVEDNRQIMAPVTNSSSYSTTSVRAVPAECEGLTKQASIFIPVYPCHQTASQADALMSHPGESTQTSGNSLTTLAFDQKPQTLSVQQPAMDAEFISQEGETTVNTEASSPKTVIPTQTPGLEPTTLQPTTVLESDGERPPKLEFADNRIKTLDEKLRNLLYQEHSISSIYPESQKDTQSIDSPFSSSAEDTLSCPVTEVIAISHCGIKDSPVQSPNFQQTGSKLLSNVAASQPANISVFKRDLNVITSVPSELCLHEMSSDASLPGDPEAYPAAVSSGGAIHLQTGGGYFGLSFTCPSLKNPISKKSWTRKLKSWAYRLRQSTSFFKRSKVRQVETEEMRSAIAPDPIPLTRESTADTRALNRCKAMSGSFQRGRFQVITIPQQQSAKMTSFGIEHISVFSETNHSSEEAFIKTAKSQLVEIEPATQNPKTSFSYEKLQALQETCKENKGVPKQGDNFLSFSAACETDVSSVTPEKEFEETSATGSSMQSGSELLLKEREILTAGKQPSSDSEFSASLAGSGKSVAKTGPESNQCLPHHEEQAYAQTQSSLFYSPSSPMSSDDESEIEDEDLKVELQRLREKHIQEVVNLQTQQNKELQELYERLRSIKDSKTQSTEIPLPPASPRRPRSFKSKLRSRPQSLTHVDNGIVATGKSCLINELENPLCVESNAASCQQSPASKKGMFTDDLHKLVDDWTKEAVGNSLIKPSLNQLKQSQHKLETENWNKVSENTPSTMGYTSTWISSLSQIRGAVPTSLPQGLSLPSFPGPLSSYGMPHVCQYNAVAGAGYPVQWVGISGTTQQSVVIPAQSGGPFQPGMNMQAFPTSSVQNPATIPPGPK
T4 sequence (Q86Z02 whole entry): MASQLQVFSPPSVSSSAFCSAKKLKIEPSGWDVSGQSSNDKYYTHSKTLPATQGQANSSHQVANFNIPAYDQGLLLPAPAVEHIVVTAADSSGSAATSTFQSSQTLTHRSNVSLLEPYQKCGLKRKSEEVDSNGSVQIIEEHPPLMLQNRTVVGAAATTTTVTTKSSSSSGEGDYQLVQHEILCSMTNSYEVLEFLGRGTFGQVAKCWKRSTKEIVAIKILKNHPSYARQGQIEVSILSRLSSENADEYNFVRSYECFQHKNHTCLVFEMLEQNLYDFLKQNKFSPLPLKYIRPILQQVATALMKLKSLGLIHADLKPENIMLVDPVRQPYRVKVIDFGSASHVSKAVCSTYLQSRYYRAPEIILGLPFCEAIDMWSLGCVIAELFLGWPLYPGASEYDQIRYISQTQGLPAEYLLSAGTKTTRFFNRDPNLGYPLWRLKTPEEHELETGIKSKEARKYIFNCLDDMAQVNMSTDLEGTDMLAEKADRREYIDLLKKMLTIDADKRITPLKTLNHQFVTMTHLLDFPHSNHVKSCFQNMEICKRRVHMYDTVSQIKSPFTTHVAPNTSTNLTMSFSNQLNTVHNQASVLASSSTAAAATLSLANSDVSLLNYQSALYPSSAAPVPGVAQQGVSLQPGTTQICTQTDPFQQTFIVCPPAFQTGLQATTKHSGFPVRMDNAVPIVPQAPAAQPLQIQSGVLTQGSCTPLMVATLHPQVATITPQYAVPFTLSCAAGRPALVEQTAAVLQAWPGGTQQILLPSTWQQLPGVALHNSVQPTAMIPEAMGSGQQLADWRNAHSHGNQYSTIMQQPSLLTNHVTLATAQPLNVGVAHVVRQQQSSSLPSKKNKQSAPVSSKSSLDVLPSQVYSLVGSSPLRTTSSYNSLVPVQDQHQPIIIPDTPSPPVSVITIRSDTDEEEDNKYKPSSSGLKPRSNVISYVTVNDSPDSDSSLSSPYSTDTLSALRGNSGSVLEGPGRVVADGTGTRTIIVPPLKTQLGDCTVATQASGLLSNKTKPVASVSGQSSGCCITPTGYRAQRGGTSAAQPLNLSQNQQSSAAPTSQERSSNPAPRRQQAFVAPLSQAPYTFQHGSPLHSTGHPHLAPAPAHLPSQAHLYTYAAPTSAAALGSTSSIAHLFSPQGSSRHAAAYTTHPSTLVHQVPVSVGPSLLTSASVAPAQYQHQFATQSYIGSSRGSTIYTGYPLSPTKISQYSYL
T3 sequence (P23458 whole entry): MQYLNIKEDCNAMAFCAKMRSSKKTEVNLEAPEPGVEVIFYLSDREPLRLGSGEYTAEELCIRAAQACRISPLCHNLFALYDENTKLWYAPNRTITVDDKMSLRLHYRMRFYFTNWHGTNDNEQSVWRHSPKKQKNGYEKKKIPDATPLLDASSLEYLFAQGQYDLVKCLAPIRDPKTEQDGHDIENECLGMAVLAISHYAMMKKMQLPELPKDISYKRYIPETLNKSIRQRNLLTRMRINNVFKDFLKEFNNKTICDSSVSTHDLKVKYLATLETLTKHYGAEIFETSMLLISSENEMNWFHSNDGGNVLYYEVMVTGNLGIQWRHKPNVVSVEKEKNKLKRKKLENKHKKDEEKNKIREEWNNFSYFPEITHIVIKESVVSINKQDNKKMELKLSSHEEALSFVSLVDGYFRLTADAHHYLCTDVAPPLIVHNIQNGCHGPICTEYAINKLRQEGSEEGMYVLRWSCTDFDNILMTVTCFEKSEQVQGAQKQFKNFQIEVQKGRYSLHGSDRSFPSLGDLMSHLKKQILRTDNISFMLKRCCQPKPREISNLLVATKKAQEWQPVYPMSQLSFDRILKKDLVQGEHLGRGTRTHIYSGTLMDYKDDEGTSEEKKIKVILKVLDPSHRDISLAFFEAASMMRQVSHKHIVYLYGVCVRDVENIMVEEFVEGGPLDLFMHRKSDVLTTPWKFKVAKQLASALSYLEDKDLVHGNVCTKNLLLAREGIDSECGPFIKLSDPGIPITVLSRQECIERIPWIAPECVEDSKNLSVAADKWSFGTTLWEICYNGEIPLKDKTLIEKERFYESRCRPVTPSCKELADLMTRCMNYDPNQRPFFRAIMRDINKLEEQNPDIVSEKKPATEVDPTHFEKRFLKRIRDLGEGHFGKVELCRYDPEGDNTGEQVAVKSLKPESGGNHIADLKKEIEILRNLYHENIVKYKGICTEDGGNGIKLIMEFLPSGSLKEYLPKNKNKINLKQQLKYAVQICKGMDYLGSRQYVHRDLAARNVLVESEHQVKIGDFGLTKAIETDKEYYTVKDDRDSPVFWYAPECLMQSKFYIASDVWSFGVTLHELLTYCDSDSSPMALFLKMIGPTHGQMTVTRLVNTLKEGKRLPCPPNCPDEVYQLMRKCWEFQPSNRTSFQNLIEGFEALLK
T6 sequence (P49759 whole entry): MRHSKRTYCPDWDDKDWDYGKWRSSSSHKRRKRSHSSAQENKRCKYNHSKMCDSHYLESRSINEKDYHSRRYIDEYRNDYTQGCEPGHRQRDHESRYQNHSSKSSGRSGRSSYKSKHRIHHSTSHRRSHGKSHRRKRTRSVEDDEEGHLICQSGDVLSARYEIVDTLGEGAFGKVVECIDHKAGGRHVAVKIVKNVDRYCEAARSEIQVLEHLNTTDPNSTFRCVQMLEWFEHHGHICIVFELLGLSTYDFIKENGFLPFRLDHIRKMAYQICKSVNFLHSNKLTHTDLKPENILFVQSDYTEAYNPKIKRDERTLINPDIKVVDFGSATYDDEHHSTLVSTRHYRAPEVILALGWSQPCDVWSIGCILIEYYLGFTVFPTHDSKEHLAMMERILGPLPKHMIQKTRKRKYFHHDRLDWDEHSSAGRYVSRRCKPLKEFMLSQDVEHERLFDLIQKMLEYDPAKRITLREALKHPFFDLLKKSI
T2 sequence (Q9Y6E0 whole entry): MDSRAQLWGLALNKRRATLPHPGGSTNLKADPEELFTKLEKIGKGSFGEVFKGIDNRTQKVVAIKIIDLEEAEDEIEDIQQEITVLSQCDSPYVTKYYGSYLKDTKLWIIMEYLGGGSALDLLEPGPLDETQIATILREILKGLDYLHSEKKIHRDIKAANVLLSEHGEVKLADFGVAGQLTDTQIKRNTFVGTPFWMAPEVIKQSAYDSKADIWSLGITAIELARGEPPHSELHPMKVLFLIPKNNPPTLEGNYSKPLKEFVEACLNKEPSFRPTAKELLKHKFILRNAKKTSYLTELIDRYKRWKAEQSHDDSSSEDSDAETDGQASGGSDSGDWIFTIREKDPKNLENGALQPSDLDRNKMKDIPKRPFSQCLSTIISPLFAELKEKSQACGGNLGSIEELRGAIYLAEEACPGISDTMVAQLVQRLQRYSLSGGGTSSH

| Structure (SMILES) | Percentage inhibition of kinase enzyme activity [1] [%] | Percentage inhibition of kinase enzyme activity [2] [%] | Percentage inhibition of kinase enzyme activity [3] [%] | Percentage inhibition of kinase enzyme activity [4] [%] | Percentage inhibition of kinase enzyme activity [5] [%] | Percentage inhibition of kinase enzyme activity [6] [%] | Percentage inhibition of kinase enzyme activity [7] [%] | Percentage inhibition of kinase enzyme activity [8] [%] | Percentage inhibition of kinase enzyme activity [9] [%] | Percentage inhibition of kinase enzyme activity [10] [%] | Percentage inhibition of kinase enzyme activity [11] [%] |
| --- | --- | --- | --- | --- | --- | --- | --- | --- | --- | --- | --- |
| CC#CC(=O)N1CCC[C@H]1c1nc(-c2ccc(C(=O)Nc3ccccn3)cc2)c2c(N)nccn12 [acalabrutinib] | -16.89 | -2.52 | -12.91 | -14.56 | 3.11 | -8.11 | 3.91 | -0.26 | 6.90 | -8.74 | -2.57 |
| C=CC(=O)N1CCC[C@@H](n2nc(-c3ccc(Oc4ccccc4)cc3)c3c(N)ncnc32)C1 [ibrutinib] | 0.74 | 7.79 | -9.54 | 4.26 | 11.95 | – | 4.14 | 6.84 | 9.66 | 8.60 | -2.28 |
| O=C(c1ccc(Oc2ccccc2)cc1Cl)c1c[nH]c2ncnc(N[C@@H]3CC[C@@H](CO)OC3)c12 [nemtabrutinib] | -0.64 | 60.10 | 32.55 | 2.16 | 58.33 | 0.63 | 96.55 | 52.96 | 1.97 | 64.72 | 1.28 |
| C=CC(=O)N1CCC([C@@H]2CCNc3c(C(N)=O)c(-c4ccc(Oc5ccccc5)cc4)nn32)CC1 [zanubrutinib] | – | – | -0.37 | – | – | – | – | – | – | – | – |
| COc1ccc(F)cc1C(=O)NCc1ccc(-c2nn([C@@H](C)C(F)(F)F)c(N)c2C(N)=O)cc1 [pirtobrutinib] | 11.69 | 0.67 | -2.12 | 2.97 | -3.18 | -2.61 | 10.97 | 2.54 | -12.42 | 4.12 | 1.53 |
